Reference: US20030065039A1, “Biologically active 1,3-bis-aromatic-prop-2-en-1-ones, 1,3-bis-aromatic-propan-1-ones, and 1,3-bis-aromatic-prop-2-yn-1-ones” (Statens Serum Institute, priority 1997, published 2003)
Marks after values point to notes of the source that are not given here.

What was measured:
[1] = target: T1, SDH (J774) (Mus musculus, UniProt Q8K2B3); test: Effect on J774 cells succinate dehydrogenase; assay type: biochemical; conditions: incubation at 28° C. for 5 min
T1 construct: endogenous in cells; host or cells: J774 cells, membrane rich fraction
T1 sequence (Q8K2B3 43-664): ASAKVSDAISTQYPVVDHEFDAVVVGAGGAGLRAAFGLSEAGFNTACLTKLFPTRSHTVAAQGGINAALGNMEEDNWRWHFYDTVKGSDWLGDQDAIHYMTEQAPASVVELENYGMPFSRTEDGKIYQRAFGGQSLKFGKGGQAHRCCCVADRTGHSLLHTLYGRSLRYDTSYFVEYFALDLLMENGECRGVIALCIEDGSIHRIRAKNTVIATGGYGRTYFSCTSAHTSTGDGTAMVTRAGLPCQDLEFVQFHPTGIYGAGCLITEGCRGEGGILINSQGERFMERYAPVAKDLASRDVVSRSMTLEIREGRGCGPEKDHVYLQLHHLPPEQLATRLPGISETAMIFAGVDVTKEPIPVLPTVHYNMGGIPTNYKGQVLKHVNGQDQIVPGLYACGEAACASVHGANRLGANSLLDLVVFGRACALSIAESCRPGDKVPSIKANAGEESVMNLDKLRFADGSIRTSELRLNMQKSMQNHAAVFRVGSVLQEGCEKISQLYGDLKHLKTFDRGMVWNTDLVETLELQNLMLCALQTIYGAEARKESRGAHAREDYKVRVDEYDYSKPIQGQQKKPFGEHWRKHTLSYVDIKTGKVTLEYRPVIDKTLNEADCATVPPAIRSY
T1 sequence (Q9CQA3 31-282 partner): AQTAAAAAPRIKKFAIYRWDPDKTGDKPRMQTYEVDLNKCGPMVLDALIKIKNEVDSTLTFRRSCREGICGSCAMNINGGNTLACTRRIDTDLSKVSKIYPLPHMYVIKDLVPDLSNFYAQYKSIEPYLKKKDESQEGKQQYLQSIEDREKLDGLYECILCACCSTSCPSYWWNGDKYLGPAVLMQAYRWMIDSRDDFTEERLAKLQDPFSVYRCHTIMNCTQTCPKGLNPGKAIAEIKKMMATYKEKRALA
T1 sequence (Q9CZB0 30-169 partner): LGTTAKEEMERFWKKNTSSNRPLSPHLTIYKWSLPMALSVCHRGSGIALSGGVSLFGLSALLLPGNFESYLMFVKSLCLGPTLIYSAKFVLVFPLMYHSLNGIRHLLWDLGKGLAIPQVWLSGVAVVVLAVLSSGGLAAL
T1 sequence (Q9CXV1 57-159 partner): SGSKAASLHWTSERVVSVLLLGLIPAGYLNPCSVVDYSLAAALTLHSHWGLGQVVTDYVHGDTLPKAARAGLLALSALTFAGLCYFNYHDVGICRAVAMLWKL

[2] = system: NDH (J774); test: Effect on J774 cells NADH dehydrogenase; assay type: biochemical; conditions: incubation at 28° C. for 5 min
Protocol: FIG. 17. Effect of licochalcone A on J774 cells NADH dehydrogenase. Membrane rich fraction of parasite was incubated with licochalcone A at 28° C. for 5 min, the remaining enzyme activity was measured. Data are mean ±SEM from 4 different experiments.

[3] = target: FRD (L. major); test: Effect on fumarate reductase of L. major promastigotes; assay type: biochemical, Leishmania major; conditions: incubation at 28° C. for 5 min
Protocol: FIG. 5. Effect of licochalcone A on Leishmania major fumarate reductase. Digitonin treated promastigotes was incubated with licochalcone A at 28° C. 30 min, and the remaining enzyme activity was measured. Data are mean ±SEM from 6 different experiments.
FIG. 6. Effect of licochalcone A on Leishmania major fumarate reductase. KCL-solubilised fumarate reductase was incubated with licochalcone A at 28° C. 30 min, and the remaining enzyme activity was measured. Data are mean ±SEM from 6 different experiments.
Parasites were harvested by centrifugation at 1000 g for 10 min, and were washed 2 times in an isotonic phosphate saline buffer (50 mM sodium phosphate, pH 7.2, 90 mM NaCl, 5 mM KCl). […]
NADH-FRD activity was determined as the rate of NADH-oxidation upon addition of 1 mM fumarate in the KCl-solubilized fraction. The reaction was monitored spectrophotometrically at 340 nm ((=6.2 mM^−1 cm^−1) using 100 μM NADH and usually 0.1 mg protein in both reference and sample cuvettes. The measurement was carried out in a Shimadzu UV-190 double-beam spectrophotometer. Protein concentrations were determined using a Bio-Rad protein assay (Bio-Rad Laboratories, 200 Alfred Nobel Dr. Hercules, Calif. 94547, USA).
KCl solubilized fraction of Leishmania major promastigotes was incubated with different concentrations of various oxygenated chalcones at 28° C. and the remaining FRD activity was measured.

[4] = target: SCC (L. major); test: Effect on L. major succinate-cytochrome c reductase; assay type: biochemical, Leishmania major; conditions: incubation at 28° C. for 5 min
Protocol: FIG. 12. Effect of licochalcone A on Leishmania major succinate-cytochrome c reductase. Membrane rich fraction of parasite was incubated with licochalcone A at 28° C. for 5 min, the remaining enzyme activity was measured. Data are mean ±SEM from 4 different experiments.

[5] = system: Bacteroides fragilis; test: Effect on anaerobic bacteria (growth); assay type: cell-based; conditions: at a concentration of 5 μg/ml
[6] = system: Leishmania major; test: Respiration of Leishmania major (O2 consumption, CO2 production); assay type: cell-based
[7] = Single dose toxicity in rats; assay type: in vivo
Protocol: Also in rats, LDlow po>1000 mg/kg was found. Studies carried out later in the project using the dosing schedule, also used to measure effects against the malaria parasites, confirmed the very good oral tolerance to all compounds tested.

[8] = system: Clostridium perfringes; test: Effect on anaerobic bacteria (growth); assay type: cell-based; conditions: at a concentration of 5 μg/ml
[9] = system: SDH (L. major); test: Effect on succinate dehydrogenase of L. major promastigotes; assay type: biochemical, Leishmania major
Text: FIG. 10. Licochalocone A on SDH of L. major promastigotes (membrane rich fraction)

[10] = target: T2, SDH (human MNC) (Homo sapiens, UniProt P31040); test: Effect on human MNC succinate dehydrogenase; assay type: biochemical; conditions: incubation at 28° C. for 5 min
T2 construct: endogenous in cells; host or cells: human blood mononuclear cells (MNC), membrane rich fraction
T2 sequence (P31040 43-664): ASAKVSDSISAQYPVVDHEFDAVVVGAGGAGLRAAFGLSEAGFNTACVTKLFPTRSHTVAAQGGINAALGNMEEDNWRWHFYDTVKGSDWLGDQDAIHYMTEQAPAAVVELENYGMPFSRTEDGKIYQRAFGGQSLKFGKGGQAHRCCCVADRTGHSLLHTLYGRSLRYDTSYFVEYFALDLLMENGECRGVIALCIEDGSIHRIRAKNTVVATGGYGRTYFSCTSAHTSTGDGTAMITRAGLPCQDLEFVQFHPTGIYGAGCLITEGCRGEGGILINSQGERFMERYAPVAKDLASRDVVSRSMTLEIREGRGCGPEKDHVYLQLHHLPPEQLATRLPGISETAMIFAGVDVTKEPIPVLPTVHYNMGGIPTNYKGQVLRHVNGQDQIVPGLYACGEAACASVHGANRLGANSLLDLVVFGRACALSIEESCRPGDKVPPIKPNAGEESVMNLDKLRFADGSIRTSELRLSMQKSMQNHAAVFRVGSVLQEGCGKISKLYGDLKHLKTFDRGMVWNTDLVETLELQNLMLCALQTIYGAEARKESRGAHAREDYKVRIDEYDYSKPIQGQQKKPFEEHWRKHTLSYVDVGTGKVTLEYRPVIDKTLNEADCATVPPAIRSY
T2 sequence (P21912 29-280 partner): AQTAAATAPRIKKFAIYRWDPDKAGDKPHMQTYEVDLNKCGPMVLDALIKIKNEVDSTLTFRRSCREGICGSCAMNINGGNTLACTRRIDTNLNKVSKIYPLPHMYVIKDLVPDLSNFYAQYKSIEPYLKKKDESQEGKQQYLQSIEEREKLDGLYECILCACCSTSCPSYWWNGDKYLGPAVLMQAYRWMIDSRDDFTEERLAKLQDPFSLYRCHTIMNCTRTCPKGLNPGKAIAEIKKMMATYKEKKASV
T2 sequence (Q99643 30-169 partner): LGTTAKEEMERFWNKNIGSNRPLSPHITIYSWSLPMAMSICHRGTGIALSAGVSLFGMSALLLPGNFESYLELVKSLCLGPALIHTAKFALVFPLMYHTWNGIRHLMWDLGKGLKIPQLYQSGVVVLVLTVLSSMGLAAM
T2 sequence (O14521 57-159 partner): as the sequence (Q9CXV1 57-159 partner) above, with I24L, G27A, V34A, V35M, S47G, T63A, P65Q, R69K, R95K counted along it

C=CC(C)(C)c1cc(/C=C/C(=O)c2ccc(O)cc2)c(OC)cc1O [Licochalcone A]
IC50 [1]: 1122.2 μg/mg protein | IC50 [2]: 547.7 μg/mg protein | IC50 [3]: 54.7 μg/mg protein | IC50 [4]: 647.6 μg/mg protein | growth of Bacteroides fragilis [5]: completely inhibted | respiration of the parasite (O2 consumption, CO2 production) [6]: inhibited the respiration of the parasite in a concentration-dependent manner | LDlow po [7]: > 1000 mg/kg | growth of Clostridium perfringes [8]: completely inhibted | inhibition ([9]; at 250 μg/mg protein): *29% inhibition at 250 μg/mg protein | IC50 ([9]; incubation at 28° C. for 5 min): >250* μg/mg protein | IC50 [10]: 799.7 μg/mg protein
